This is an account of results in paper PMC12880750, “Mechanistic insights and in vivo HIV suppression by the BRD4-targeting small molecule ZL0580” (PLOS Pathogens, 2026).

Test [1] concerns BRD4-knockout (KO) J-Lat cells. Description: RT-qPCR of differentially expressed genes, BRD4-KO J-Lat cells. The test is classed as cell-based, human. The settings on record: same treatments. How it is done:
To validate the RNA-Seq results, RT-qPCR analysis was performed on a subset of differentially expressed genes (DEGs) (Fig 3E). Eight representative DEGs were selected based on statistical significance (adjusted p values) and their involvement in key pathways identified by GSEA, including lipid metabolism/cholesterol biosynthesis (HMGCS1, SQLE, DHCR7) and cytokine signaling (ITK and DUSP8). Relative gene expression levels were normalized to the housekeeping gene GAPDH. […] As an additional control, RT-qPCR was also performed on RNA isolated from BRD4-knockout (KO) J-Lat cells that received the same treatments. The generation and characterization of BRD4-KO J-Lat cells were described previously.
RT-qPCR was performed as previously reported.

Test [2] has as its system CDK9 binding to HIV 5′-LTR in J-Lat cells (10.6). Description: ChIP-qPCR of CDK9 binding to HIV 5'-LTR. Type of test: cell-based, human. The settings on record: PMA 50ng/ml, 24 hours.
Procedure: Twenty-four hours later, cells were subjected to ChIP-qPCR using an anti-CDK9 antibody, with isotype IgG as the ChIP control.
24 hours after treatments, ChIP-qPCR was performed using a CDK9-specific antibody to examine the recruitment of CDK9 to HIV 5’-LTR in J-Lat cells. ChIP using an isotype IgG was included for normalization. Data were shown as fold change in the precipitated HIV 5′ LTR by the CDK9 antibody relative to the control isotype IgG for each treatment condition.
ChIP was performed using a method reported previously [41]. About 15 × 10⁶ J-Lat cells were treated according to the conditions described in the Main Text. After treatment, cells were collected, washed once with PBS, and resuspended in 10 mL PBS. To cross-link protein–DNA complexes, cells were fixed with 37% formaldehyde, and the reaction was quenched by adding 10Xglycine and incubating for 5 min at room temperature. The cells were then pelleted by centrifugation, and the pellets were incubated in ice-cold lysis buffer for 30 min. […] After extensive washing with the appropriate ChIP buffers, immune complexes were eluted, reverse cross-linked, and treated with proteinase K. DNA was purified using phenol–chloroform extraction and subsequently analyzed by qPCR. […] ChIP-qPCR results were quantified using the fold-enrichment method as previously reported [41].

Consider `Cc1sc2c(c1C)C(c1ccc(Cl)cc1)=N[C@@H](CC(=O)OC(C)(C)C)c1nnc(C)n1-2` [JQ1, reference compound], for which the “Contrasting regulatory effects on representative DEGs in the absence of BRD4” value in test [1] is listed as “largely abolished”.
As for `CCCCCCCCCCCCCC(=O)O[C@@H]1[C@@H](C)[C@@]2(O)[C@@H](C=C(CO)C[C@]3(O)C(=O)C(C)=C[C@@H]23)[C@@H]2C(C)(C)[C@]12OC(C)=O` [PMA, reference compound], the “Increase in CDK9 occupancy at the HIV promoter relative to NC” value in test [2] is recorded as ~ 19 fold.
